Measured values from PMC11775380, “Discovery of Novel Nav1.7-Selective Inhibitors with the 1H-Indole-3-Propionamide Scaffold for Effective Pain Relief” (Research, 2025).

Key:
[1] = tested on: native Na+ current (Nav channels) in DRG neurons; test: Voltage-clamp recording of native Na+ current in DRG neurons; format: cell-based; conditions: 10 μM; mouse DRG neurons
Description: To investigate the mechanism of action of WN2-R and facilitate animal model experiments, we used voltage-clamp recording to test the effects of WN2-R on the native Na^+-, K^+-, and Ca^2+-mediated currents in DRG neurons. […] Furthermore, the effects of WN2-R on membrane excitability were examined in small (<30 μm) DRG neurons from mice using current-clamp recordings.
DRG isolation and culture were performed according to our previous report. Briefly, C57BL/6 mice (weight 18 to 20 g, 6 to 8 weeks) were euthanized via cervical dislocation under anesthesia. Lumbar DRGs were isolated from the L4 to L5 segments of the lumbar spinal cord. The DRG neurons were subsequently dissociated through enzymatic digestion with collagenase (0.32 mg/ml) and trypsin (0.15 mg/ml) at 37 °C for 30 min, with intermittent shaking. After centrifugation at 800 rpm for 5 min at room temperature, the cells were seeded onto poly-L-lysine-coated coverslips and cultured in DMEM (Gibco) supplemented with 10% fetal bovine serum (Gibco). […]
For recording Nav currents of DRG neurons, the bath solution contains (in mM) 30 NaCl, 1 MgCl2, 1.8 CaCl2, 5 CsCl, 5 KCl, 25 D-glucose, 5 HEPES, 0.1 CdCl2, and TEA-Cl (pH 7.4 with NaOH), and the pipette solution contains (in mM) 135 CsCl, 10 NaCl, and 5 HEPES (pH 7.4 with CsOH). The Nav current program is recorded following the above method. […]

[2] = tested on: formalin-induced acute inflammatory pain model in mice; test: Formalin-induced inflammation pain model; format: in vivo, ICR mice; conditions: 30 min before formalin
Description: The formalin-induced acute inflammatory pain model in mice, achieved through the plantar injection of formalin aqueous solution, is another widely used model for acute inflammatory pain. This model comprises 2 stages: an initial phase ([…]) where pain is triggered by formalin's direct stimulation of nociceptive receptors on sensory neurons, followed by a second phase (15 to 40 min) characterized by persistent inflammatory pain due to tissue damage. Similarly, both i.g. and i.m. methods were used to evaluate the effect of WN2-R in this model (n = 6) (Fig. 6B and I). […] These findings were consistent across repeated experiments.
To induce the pain response, 20 μl of formalin (5%, w/v) was injected subcutaneously into the right hind paw of ICR mice (3 male and 3 female). Prior to the formalin injection, mice were preadministered with WN2-R (5 mg/kg i.g., 1 mg/kg i.m.), PF05089771 (5 mg/kg i.g., 1 mg/kg i.m.), or saline 30 min beforehand. The duration of licking/biting the injected paw was recorded every 5 min, commencing immediately after the formalin injection and continuing for 40 min. Phase I and II in this assay corresponded to the nociceptive response observed between 0 and 5 min and between 10 and 40 min, respectively.

[3] = tested on: CFA inflammatory pain model of mice; test: CFA-induced inflammatory (chronic) pain model; format: in vivo, ICR mice; conditions: for Paw withdrawal threshold (PWT) at 1.5 h: 1.5 h post drug, 24 h after CFA
Description: The chronic pain model of mice was often used to simulate persistent pain in humans. In this model, chronic persistent pain was induced by injecting complete Freund’s adjuvant (CFA) into the right hind foot of mice. […] The chronic analgesic potential of WN2-R was evaluated using both i.g. and i.m. methods (n = 4). When administered by i.g., the PWTs of the WN2-R group and the PF-05089771 group reached their peak at 1.5 and 1 h after administration, respectively, and subsequently declined to the same level as the saline group at 2.5 h (Fig. 6D). […] When administered i.m., both the WN2-R and PF-05089771 groups reached peak PWTs at 1.5 h, and declined to the saline group level at 3 h (Fig. 6K). […] The mechanical allodynia of ICR mice (2 male and 2 female) was assessed prior to model construction using von Frey fibers according to the up–down method. Mice with paw withdraw thresholds (PWTs) remarkably deviating from the mean value were excluded from further experiments. Subsequently, 15 μl of CFA was unilaterally injected into the intraplantar surface of the right hind paw of each mice. After 24 h, the PWTs of the mice were assessed. During the i.g. administration of drugs or saline, PWTs were measured 0, 0.5, 1, 1.5, 2, and 2.5 h post drugs/saline administration. Similarly, during i.m. administration, PWTs were measured at 0, 0.5, 1, 1.5, 2, 2.5, and 3 h post drugs/saline administration.

Cc1ccc(Cn2cc([C@H](CC(=O)NCCN(C)C)c3ccc(F)cc3)c3ccccc32)cc1 [WN2-R]
Effect on native Na+ current [1]: completely inhibited
Licking time in phase I vs saline ([2]; i.g., 5 mg/kg): significantly reduced licking time
Licking time in phase II vs saline ([2]; i.g., 5 mg/kg): failed to significantly reduce licking time
Licking time in phase I vs saline ([2]; i.m., 1 mg/kg): significantly reduced licking time
Licking time in phase II vs saline ([2]; i.m., 1 mg/kg): significantly reduced licking time
Time at which PWT declined to the saline group level ([3]; i.g.): 2.5 h
Time of peak PWT after administration ([3]; i.g.): 1.5 h
Paw withdrawal threshold (PWT) at 1.5 h ([3]; i.g.): 1.25 g
Time at which PWT declined to the saline group level ([3]; i.m.): 3 h
Time of peak PWT after administration ([3]; i.m.): 1.5 h
Paw withdrawal threshold (PWT) at 1.5 h ([3]; i.m.): 1.17 g
